{"source": "ChEMBL document CHEMBL5653615", "about": "(J Biol Chem, 2013)", "key": {"[1]": {"biological_target": "T1, Ephrin type-A receptor 8 (Homo sapiens) (UniProt P29322)", "T1 sequence (whole entry)": "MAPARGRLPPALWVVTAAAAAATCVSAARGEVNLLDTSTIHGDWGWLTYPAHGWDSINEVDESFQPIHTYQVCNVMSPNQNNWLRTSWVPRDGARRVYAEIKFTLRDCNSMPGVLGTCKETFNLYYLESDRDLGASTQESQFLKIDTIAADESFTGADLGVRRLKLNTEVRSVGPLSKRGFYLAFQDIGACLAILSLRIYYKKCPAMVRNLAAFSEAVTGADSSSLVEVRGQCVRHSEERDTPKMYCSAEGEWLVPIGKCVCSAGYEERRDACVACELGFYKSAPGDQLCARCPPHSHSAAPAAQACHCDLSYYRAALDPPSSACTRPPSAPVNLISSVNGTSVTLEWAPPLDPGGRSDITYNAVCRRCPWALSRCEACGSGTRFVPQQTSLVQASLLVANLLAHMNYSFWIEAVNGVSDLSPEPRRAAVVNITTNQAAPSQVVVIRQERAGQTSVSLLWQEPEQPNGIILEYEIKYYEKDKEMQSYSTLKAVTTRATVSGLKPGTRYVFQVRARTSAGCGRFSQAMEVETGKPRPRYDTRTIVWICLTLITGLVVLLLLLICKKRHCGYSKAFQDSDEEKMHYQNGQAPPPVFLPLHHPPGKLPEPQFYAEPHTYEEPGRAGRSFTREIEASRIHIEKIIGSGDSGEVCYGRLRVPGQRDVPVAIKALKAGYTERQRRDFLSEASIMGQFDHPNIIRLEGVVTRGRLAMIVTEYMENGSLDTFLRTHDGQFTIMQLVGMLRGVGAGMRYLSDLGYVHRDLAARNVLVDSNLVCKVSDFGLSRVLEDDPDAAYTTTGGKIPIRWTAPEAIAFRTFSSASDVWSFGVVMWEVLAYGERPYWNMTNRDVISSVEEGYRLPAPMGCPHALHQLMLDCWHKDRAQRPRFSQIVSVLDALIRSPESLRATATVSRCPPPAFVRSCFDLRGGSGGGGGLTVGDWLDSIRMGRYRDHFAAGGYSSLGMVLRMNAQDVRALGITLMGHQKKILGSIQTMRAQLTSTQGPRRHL", "assay": "Inhibition of human EPHA8 at 1.82 nM by HotSpot assay relative to control"}, "[2]": {"biological_target": "T2, Serine/threonine-protein kinase TBK1 (Homo sapiens) (UniProt Q9UHD2)", "T2 sequence (whole entry)": "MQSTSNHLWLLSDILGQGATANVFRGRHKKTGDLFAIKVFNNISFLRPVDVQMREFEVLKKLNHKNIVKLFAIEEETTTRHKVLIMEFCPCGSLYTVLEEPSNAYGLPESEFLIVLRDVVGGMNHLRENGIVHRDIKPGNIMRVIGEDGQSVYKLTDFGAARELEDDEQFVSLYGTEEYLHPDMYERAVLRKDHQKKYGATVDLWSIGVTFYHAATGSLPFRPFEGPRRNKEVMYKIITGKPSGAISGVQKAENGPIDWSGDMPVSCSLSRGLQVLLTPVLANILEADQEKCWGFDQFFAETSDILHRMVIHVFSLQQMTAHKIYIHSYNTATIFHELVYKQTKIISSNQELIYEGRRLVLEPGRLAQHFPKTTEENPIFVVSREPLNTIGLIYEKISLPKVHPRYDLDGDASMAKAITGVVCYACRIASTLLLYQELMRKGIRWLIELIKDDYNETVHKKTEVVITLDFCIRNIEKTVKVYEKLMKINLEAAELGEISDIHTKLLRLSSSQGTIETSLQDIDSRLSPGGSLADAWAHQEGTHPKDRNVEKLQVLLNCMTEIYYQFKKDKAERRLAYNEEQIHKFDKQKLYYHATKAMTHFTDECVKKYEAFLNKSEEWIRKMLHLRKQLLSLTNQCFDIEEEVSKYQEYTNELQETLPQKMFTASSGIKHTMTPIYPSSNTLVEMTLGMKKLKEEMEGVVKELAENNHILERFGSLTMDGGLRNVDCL", "assay": "Inhibition of human TBK1 at 18.6 nM by HotSpot assay relative to control"}, "[3]": {"biological_target": "T3, Discoidin domain-containing receptor 2 (Homo sapiens) (UniProt Q16832)", "T3 sequence (whole entry)": "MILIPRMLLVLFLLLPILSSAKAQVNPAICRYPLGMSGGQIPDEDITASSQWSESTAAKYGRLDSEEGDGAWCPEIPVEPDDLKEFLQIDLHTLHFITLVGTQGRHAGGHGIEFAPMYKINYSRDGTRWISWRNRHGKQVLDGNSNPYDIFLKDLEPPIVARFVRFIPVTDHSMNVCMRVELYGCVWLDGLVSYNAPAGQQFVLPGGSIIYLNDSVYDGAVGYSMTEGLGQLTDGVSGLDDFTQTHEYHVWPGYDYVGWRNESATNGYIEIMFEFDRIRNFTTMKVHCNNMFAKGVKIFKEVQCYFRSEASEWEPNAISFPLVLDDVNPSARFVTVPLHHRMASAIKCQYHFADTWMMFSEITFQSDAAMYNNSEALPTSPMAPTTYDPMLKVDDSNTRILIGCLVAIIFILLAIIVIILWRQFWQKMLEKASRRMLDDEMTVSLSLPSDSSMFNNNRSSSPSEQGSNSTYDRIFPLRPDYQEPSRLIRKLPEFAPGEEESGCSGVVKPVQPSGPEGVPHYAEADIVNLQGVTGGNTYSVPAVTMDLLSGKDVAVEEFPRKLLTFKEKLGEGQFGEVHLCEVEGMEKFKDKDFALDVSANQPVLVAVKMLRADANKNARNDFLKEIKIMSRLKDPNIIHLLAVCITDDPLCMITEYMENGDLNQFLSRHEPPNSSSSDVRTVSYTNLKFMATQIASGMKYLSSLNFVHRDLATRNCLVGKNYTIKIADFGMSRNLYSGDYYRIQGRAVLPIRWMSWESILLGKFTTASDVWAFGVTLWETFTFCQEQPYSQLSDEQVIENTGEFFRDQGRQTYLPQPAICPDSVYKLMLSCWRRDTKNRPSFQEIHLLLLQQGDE", "assay": "Inhibition of human DDR2 at 18.6 nM by HotSpot assay relative to control"}, "[4]": {"biological_target": "Casein kinase I isoform gamma-1 (Homo sapiens) (UniProt Q9HCP0)", "sequence (Q9HCP0 whole entry, looked up, canonical isoform)": "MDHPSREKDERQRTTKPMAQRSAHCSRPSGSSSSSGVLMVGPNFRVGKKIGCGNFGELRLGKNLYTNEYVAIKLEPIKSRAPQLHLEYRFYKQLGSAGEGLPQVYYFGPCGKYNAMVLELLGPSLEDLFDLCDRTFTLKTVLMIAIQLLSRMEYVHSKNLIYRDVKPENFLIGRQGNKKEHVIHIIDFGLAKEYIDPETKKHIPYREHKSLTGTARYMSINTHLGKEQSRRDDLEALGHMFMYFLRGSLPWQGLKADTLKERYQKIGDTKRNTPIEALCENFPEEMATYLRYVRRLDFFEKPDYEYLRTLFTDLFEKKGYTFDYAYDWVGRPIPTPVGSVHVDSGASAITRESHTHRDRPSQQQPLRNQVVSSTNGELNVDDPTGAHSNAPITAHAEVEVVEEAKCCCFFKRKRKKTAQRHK", "assay": "Inhibition of human CK1g1 at 18.6 nM by HotSpot assay relative to control"}, "[5]": {"biological_target": "RAC-gamma serine/threonine-protein kinase (Homo sapiens) (UniProt Q9Y243)", "sequence (Q9Y243 whole entry)": "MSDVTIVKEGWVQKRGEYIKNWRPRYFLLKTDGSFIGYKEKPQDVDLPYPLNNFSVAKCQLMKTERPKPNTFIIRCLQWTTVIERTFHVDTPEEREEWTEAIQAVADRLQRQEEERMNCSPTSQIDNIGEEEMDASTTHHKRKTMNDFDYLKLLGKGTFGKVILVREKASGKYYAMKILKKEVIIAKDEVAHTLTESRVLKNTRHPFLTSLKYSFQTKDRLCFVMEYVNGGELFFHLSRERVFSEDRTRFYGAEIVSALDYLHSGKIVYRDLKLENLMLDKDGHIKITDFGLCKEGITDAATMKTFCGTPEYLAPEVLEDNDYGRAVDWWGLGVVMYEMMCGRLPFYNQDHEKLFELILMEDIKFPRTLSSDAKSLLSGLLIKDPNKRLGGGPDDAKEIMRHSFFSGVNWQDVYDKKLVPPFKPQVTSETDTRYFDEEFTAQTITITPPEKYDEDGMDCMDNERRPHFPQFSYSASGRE", "assay": "Inhibition of human AKT3 at 18.6 nM by HotSpot assay relative to control"}}}
{"smiles": "C[C@@]1(C(=O)Nc2ccc(F)nc2)CCCN1c1nc(Nc2cc(C3CC3)n[nH]2)c2cccn2n1", "values": [{"measurement": "inhibition", "setting": "[1]", "result": -4.62, "unit": "%"}]}
{"smiles": "C[C@]1(O)C[C@@H](c2nc(-c3ccc4ccc(-c5ccccc5)nc4c3)c3c(N)nccn32)C1", "values": [{"measurement": "inhibition", "setting": "[2]", "result": 5.59, "unit": "%"}, {"measurement": "inhibition", "setting": "[3]", "result": -2.4, "unit": "%"}, {"measurement": "inhibition", "setting": "[4]", "result": -0.6, "unit": "%"}, {"measurement": "inhibition", "setting": "[5]", "result": -1.08, "unit": "%"}]}
